In patent publication US12673954B2 (BRISTOL-MYERS SQUIBB COMPANY, priority 2021, dated 2026):
Like-named read-outs stand apart in the source and are kept apart here.

How the values were obtained:
[1] = test system: IRF pathway, THP1-Dual™ cells; assay: STING reporter assay in THP1-Dual cells, IRF pathway (Lucia luciferase, QUANTI-Luc); type: cell-based, human; details: read-out: IRF (EC50 μM)
Summary of the method: (§1)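 THP-1-derived dual-reporter cells treated with serially diluted compounds (final top concentration 100 μM) for 20 h at 37° C. NF-κB read as SEAP via QUANTI-Blue at OD620; IRF read as Lucia luminescence via QUANTI-Luc after 5 min. 100% activation set by 100 μM cGAMP, baseline by DMSO.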

[2] = test system: NF-κB pathway, THP1-Dual™ cells; assay: STING reporter assay in THP1-Dual cells, NF-κB pathway (SEAP, QUANTI-Blue); type: cell-based, human; details: read-out: NFkB (EC50 μM)
Summary of the method: as §1

[3] = Homo sapiens, THP1-Dual, 20 h, THP1-Dual cells, 10% human plasma, 20 hours, Lucia luciferase, 100% activation = 100 μM cGAMP
[4] = Homo sapiens, THP1-Dual, 20 h, THP1-Dual cells, 10% human plasma, 20 hours, SEAP, 100% activation = 100 μM cGAMP
[5] = THP1-Dual cells, 10% human plasma, 20 hours, Lucia luciferase, 100% activation = 100 μM cGAMP
[6] = THP1-Dual cells, 10% human plasma, 20 hours, SEAP, 100% activation = 100 μM cGAMP

Structure (SMILES) | EC50 [1, 3] [µM] | EC50 [2, 4] [µM] | further results
C[C@H](NC(=O)c1cnn2cccnc12)c1cc2cc(Cl)cc(C(=O)SCC[Si](C)(C)C)c2o1 [EXAMPLE 400, S-(2-(Trimethylsilyl)ethyl) (S)-5-chloro-2-(1-(pyrazolo[1,5-a]pyrimidine-3-carboxamido)ethyl)benzofuran-7-carbothioate] | – | – | EC50 ([1]; Homo sapiens, THP1-Dual, 20 h): 25 µM; EC50 ([2]; Homo sapiens, THP1-Dual, 20 h): 22 µM
COC(=O)c1cccc2cc(CNC(=O)c3cncc4cccnc34)oc12 [EXAMPLE 14, Methyl 2-((1,6-naphthyridine-8-carboxamido)methyl)benzofuran-7-carboxylate] | 3.8 | 6 | –
CC(NC(=O)c1cnn2cccnc12)c1cc2cc(F)cc(C(=O)O[C@H](C)C(F)(F)F)c2o1 (stereo partly drawn) [EXAMPLE 325, (R)-1,1,1-Trifluoropropan-2-yl 5-fluoro-2-(1-(pyrazolo[1,5-a]pyrimidine-3-carboxamido)ethyl)benzofuran-7-carboxylate] | – | – | EC50 [1, 5]: 1.7 µM; EC50 [2, 6]: 1.4 µM
CC(C)OC(=O)c1cc(F)cc2cc(CNC(=O)c3cnn4cccnc34)oc12 [EXAMPLE 232, Isopropyl 5-fluoro-2-((pyrazolo[1,5-a]pyrimidine-3-carboxamido)methyl)benzofuran-7-carboxylate] | 1 | 0.92 | –
Cc1cc(C(=O)OC(C)C)c2oc(CNC(=O)c3cnn4cccnc34)cc2c1 [EXAMPLE 273, Isopropyl 5-methyl-2-((pyrazolo[1,5-a]pyrimidine-3-carboxamido)methyl)-benzofuran-7-carboxylate] | 0.7 | 0.75 | –
O=C(OCC(F)(F)F)c1cc(F)c(F)c2cc(CNC(=O)c3cnn4cccnc34)oc12 [EXAMPLE 226] | 1.4 | 1.3 | –
COC(=O)c1cc(Cl)cc2cc(CNC(=O)c3cnccn3)oc12 [Example 58, Methyl 5-chloro-2-((pyrazine-2-carboxamido)methyl) benzofuran-7-carboxylate] | – | – | EC50 [1, 5]: 2.7 µM; EC50 [2, 6]: 2.9 µM
COC(=O)c1cc(F)c(F)c2cc(CN3CCc4ccncc4C3=O)oc12 [EXAMPLE 125, Methyl 4,5-difluoro-2-((1-oxo-3,4-dihydro-2,7-naphthyridin-2(1H)-yl)methyl)benzofuran-7-carboxylate] | 3.9 | 4.4 | –
C[C@H](NC(=O)c1cnn2cccnc12)c1oc2c(C(=O)O[C@H](C)C(F)(F)F)cc(F)cc2c1Cl [EXAMPLE 293, (R)-1,1,1-Trifluoropropan-2-yl 3-chloro-5-fluoro-2-((S)-1-(pyrazolo[1,5-a]pyrimidine-3-carboxamido)ethyl)benzofuran-7-carboxylate] | 4.4 | 3.8 | –

The next lines start with results.

EC50 [1, 3] [µM] | EC50 [2, 4] [µM] | Structure (SMILES) | further results
24 | 33 | COC(=O)c1cc(Cl)cc2cc(CNC(=O)c3cncc4[nH]c(C)nc34)oc12 [Example 71, Methyl 5-chloro-2-((2-methyl-3H-imidazo[4,5-c]pyridine-7-carboxamido)methyl)benzofuran-7-carboxylate] | –
5.7 | 4.6 | O=C(OCC(F)(F)F)c1cc(F)cc2cc(Cn3ccc4ccncc4c3=O)oc12 [EXAMPLE 362, 2,2,2-Trifluoroethyl 5-fluoro-2-((1-oxo-2,7-naphthyridin-2(1H)-yl)methyl)benzofuran-7-carboxylate] | –
0.91 | 1.2 | CONC(=O)c1cc(C)cc2c(Cl)c(CNC(=O)c3cnn4cccnc34)oc12 [EXAMPLE 408, N-((3-chloro-7-(methoxycarbamoyl)-5-methylbenzofuran-2-yl)methyl)pyrazolo[1,5-a]pyrimidine-3-carboxamide] | –
11 | 12 | O=C(OC1CC(c2ccc(F)cc2)C1)c1cc(Cl)cc2cc(CNC(=O)c3cnn4cccnc34)oc12 (single isomer, unassigned) [EXAMPLE 333, 3-(4-Fluorophenyl)cyclobutyl 5-chloro-2-((pyrazolo[1,5-a]pyrimidine-3-carboxamido)methyl)benzofuran-7-carboxylate] | –
